Laboratory results from patent publication US6495591B1, “Fungal efflux pump inhibitors” (Essential Therapeutics, Inc., priority 1997, dated 2002).

Columns and labels:
[1] = tested on: P388 cell line (mouse leukemia), adriamycin sensitive; test: Adriamycin cytotoxicity (MTT), P-glycoprotein assay
Method: (§1) The inhibitory effect of milbemycin β1 against the mammalian P-glycoprotein multi-drug resistant pump was determined following the procedure described by Tsuruo et al (Cancer Res., 1981. 41:1967-1972) with slight modification. The cytotoxicity of antitumor agent, adriamycin, against adriamycin sensitive P388 cell line (mouse leukemia) and its adriamycin resistant subline line (P388/ADM) was measured in the presence of various concentrations of milbemycin β1. […] The assay is performed in serum-free media containing 20 μM of 2-mercaptoethanol. Chemosensitivity to adriamycin was determined […] based on the reduction of MTT (3-[4,5-dimethylthiazol-2-yl]-2,5-diphenyltetrazolium bromide) into blue formazan.

[2] = tested on: P388/ADM, adriamycin resistant subline; test: as above
Method: as §1

[3] = tested on: mammalian P-glycoprotein multi-drug resistant pump; type: cell-based, mouse; conditions: no inhibitor (None)
Method: as §1

[4] = biological target: pBEN (MF) efflux pump in S. cerevisiae YEM-2 (Candida albicans, UniProt P28873); test: cell-based; type: cell-based, C. albicans; conditions: YEM-2 pBEN; fluconazole fixed at FLUhalf 5.6
pBEN (MF) efflux pump in S. cerevisiae YEM-2, sequence (P28873 whole entry): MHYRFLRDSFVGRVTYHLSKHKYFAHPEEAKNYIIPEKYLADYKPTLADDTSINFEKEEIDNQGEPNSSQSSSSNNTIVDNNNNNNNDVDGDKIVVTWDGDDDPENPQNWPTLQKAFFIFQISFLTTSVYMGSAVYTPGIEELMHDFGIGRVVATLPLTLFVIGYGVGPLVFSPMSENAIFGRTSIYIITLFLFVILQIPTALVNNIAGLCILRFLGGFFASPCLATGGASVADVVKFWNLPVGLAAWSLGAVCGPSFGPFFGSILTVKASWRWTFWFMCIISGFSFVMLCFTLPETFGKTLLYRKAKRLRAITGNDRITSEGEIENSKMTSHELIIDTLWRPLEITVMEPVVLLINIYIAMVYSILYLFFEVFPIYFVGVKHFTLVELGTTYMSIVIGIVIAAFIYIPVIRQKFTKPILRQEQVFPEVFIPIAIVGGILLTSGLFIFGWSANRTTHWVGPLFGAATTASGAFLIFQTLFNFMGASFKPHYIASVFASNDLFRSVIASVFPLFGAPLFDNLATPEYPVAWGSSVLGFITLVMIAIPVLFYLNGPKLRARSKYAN

[5] = biological target: pCDR2 (ABC) efflux pump in S. cerevisiae YEM-37 (Candida albicans, UniProt P78595); test: cell-based; type: cell-based, C. albicans; conditions: YEM-37 pCDR2; fluconazole fixed at FLUhalf 1
pCDR2 (ABC) efflux pump in S. cerevisiae YEM-37, sequence (P78595 whole entry): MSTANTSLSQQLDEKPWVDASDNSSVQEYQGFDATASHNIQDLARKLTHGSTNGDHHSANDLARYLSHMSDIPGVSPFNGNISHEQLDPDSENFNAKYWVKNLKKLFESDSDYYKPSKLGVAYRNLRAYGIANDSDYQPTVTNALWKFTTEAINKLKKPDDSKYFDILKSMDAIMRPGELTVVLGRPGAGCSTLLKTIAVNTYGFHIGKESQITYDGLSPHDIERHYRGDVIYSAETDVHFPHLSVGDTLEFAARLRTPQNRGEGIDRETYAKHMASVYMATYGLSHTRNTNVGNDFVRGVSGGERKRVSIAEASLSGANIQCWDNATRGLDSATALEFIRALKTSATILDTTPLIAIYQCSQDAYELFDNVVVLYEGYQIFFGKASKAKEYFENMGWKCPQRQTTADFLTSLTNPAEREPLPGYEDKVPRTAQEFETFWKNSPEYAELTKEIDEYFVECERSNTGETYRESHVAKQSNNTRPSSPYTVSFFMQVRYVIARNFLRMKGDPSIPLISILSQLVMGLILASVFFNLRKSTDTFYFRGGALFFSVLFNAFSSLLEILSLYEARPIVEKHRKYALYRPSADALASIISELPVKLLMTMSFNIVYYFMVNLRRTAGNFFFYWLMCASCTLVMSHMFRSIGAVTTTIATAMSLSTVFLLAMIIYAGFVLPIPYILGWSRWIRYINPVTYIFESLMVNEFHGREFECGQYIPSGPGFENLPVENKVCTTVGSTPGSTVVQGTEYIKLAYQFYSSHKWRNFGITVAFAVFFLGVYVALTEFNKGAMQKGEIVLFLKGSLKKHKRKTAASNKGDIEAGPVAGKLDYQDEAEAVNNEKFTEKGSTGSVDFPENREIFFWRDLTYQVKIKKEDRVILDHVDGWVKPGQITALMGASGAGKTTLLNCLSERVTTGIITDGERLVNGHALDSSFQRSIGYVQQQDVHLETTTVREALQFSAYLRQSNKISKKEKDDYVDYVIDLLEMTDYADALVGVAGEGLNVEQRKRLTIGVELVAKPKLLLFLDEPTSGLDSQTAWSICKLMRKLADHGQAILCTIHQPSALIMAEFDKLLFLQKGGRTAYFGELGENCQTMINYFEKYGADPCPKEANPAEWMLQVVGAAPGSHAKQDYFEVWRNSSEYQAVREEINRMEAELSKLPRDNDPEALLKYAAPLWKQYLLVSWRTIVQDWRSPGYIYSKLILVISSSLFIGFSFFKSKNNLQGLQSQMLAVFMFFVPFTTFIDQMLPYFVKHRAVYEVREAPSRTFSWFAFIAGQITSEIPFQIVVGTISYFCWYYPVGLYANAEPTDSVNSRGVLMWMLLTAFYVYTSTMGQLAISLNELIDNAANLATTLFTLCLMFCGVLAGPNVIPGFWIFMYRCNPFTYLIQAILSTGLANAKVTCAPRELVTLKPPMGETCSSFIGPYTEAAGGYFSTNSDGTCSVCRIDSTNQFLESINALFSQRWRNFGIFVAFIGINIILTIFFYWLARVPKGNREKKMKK

[6] = tested on: YEM 15 C. albicans, CDR1CDR2 up; test: microbe, parasite or virus in culture; type: cell-based; conditions: YEM 15, 24 hrs, 80% inhibition; for MIC of compound in the presence of fluconazole (+): 1/8 × MIC of fluconazole
[7] = tested on: YEM 13 C. albicans BEN up; test: microbe, parasite or virus in culture; type: cell-based; conditions: YEM 13, 24 hrs, 80% inhibition; for MIC of compound in the presence of fluconazole (+): 1/8 × MIC of fluconazole
[8] = tested on: YEM 17 C. glabrata, CgCDR up; type: cell-based; conditions: 24 hrs, 80% inhibition; for MIC of compound in the presence of fluconazole (+): 1/8 × MIC of fluconazole
[9] = biological target: pCgCDR (ABC) efflux pump in S. cerevisiae YEM-39 (Candida glabrata, UniProt Q6FK23); test: cell-based; type: cell-based, C. glabrata; conditions: YEM-39 pCgCDR; fluconazole fixed at FLUhalf 4
pCgCDR (ABC) efflux pump in S. cerevisiae YEM-39, sequence (Q6FK23 whole entry): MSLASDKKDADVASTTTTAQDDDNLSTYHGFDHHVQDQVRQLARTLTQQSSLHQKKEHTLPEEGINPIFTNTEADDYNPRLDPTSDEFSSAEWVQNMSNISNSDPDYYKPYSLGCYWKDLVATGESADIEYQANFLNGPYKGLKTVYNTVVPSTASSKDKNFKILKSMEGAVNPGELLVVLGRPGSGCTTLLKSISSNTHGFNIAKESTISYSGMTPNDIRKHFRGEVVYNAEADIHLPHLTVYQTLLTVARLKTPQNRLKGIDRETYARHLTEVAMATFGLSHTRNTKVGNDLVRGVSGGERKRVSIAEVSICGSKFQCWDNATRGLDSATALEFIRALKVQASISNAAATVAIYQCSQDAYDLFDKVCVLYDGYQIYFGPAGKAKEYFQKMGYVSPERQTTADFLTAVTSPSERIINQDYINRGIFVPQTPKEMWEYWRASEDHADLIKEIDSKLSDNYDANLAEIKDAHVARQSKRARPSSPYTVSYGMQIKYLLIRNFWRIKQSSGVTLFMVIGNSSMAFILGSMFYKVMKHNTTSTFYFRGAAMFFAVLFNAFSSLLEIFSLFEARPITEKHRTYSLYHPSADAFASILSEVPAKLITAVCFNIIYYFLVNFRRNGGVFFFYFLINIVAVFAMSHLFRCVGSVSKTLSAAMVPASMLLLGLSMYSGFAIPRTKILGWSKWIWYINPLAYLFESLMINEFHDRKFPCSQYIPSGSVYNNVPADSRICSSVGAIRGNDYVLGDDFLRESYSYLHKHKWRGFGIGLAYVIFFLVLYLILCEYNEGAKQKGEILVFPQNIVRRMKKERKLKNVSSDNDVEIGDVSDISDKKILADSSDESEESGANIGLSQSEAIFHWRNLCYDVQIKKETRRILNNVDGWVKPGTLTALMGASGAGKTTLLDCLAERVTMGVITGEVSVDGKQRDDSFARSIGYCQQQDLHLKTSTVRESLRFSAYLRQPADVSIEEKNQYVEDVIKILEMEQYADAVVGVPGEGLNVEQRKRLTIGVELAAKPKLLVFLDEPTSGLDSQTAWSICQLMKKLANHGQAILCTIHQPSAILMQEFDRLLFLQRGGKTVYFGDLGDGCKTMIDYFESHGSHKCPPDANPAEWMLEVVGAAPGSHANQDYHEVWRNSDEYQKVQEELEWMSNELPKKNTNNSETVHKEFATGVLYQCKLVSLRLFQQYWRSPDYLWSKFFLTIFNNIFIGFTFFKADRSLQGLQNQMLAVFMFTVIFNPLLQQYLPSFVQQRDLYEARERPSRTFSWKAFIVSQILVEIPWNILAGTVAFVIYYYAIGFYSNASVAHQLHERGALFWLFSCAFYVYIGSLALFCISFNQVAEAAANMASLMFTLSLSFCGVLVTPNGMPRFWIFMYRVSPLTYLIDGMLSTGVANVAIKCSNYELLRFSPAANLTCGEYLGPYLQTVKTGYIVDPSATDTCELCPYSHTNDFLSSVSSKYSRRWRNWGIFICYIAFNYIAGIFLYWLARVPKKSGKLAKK

YEM 30 C. albicans wt = test: FEPI MIC with/without 1/8 fluconazole MIC at 24 hrs (Table 11); type: cell-based; conditions: YEM 30, 24 hrs, 80% inhibition; for MIC of compound in the presence of fluconazole (+): 1/8 × MIC of fluconazole
[10] = biological target: pFLU (MF) efflux pump in S. cerevisiae YEM-38 (Candida albicans, UniProt G1UB37); test: cell-based; type: cell-based, C. albicans; conditions: YEM-38 pFLU; fluconazole fixed at FLUhalf 2
pFLU (MF) efflux pump in S. cerevisiae YEM-38, sequence (G1UB37 whole entry): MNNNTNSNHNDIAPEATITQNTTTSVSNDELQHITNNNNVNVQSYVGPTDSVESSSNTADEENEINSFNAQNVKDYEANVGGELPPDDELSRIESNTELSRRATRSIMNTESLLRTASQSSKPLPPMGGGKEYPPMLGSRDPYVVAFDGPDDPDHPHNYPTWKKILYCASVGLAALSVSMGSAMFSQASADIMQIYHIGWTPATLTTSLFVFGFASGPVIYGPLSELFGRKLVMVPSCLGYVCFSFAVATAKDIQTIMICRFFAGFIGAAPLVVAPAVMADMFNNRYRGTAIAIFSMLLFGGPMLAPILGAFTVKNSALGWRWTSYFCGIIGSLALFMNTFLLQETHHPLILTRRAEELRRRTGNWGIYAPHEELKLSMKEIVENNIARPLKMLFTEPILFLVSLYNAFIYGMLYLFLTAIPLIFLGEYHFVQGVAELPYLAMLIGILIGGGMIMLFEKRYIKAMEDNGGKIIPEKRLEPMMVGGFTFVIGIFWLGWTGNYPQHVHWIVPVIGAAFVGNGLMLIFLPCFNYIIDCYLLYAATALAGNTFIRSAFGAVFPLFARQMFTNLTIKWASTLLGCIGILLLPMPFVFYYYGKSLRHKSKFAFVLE

YEM 51 C. glabrata wt = test: FEPI MIC with/without 1/8 fluconazole MIC at 24 hrs (Table 11); type: cell-based; conditions: YEM 51, 24 hrs, 80% inhibition; for MIC of compound in the presence of fluconazole (+): 1/8 × MIC of fluconazole
YEM 53 C. krusei = test: as above; type: cell-based; conditions: YEM 53, 24 hrs, 80% inhibition; for MIC of compound in the presence of fluconazole (+): 1/8 × MIC of fluconazole
Aspergillus fumigatus = test: FEPI MICs in combination with 1/4 the azole's MIC (Table 12); type: cell-based; design: FEPI MIC (alone): unit not given here; conditions: for FEPI MIC with fluconazole, 60% Inh / FEPI MIC with fluconazole, 80% Inh: fluconazole 32 μg/ml (1/4 MIC); for FEPI MIC with fluconazole, 60% Inh / FEPI MIC with itraconazole, 60% Inh / FEPI MIC with ketoconazole, 60% Inh: 60% inhibition; for FEPI MIC with fluconazole, 80% Inh / FEPI MIC with itraconazole, 80% Inh / FEPI MIC with ketoconazole, 80% Inh / FEPI MIC (alone): 80% inhibition; for FEPI MIC with itraconazole, 60% Inh / FEPI MIC with itraconazole, 80% Inh: itraconazole 0.063 μg/ml (1/4 MIC); for FEPI MIC with ketoconazole, 60% Inh / FEPI MIC with ketoconazole, 80% Inh: ketoconazole 4 μg/ml (1/4 MIC); for FEPI MIC (alone): no azole, 35° C., CM Broth
Method: The combinations were tested against a series of Candida strain with known expression of efflux pumps or with complete deletion of all known pumps and Aspergillus fumigatus. Results are reported as minimum inhibitory concentration (MIC) of […] in the presence or absence of […]. A total of 27 distinct milbemycins were studied.

[11] = tested on: YEM 27 C. albicans ΔCDR1ΔCDR2 ΔBENΔFLU1; test: microbe, parasite or virus in culture; type: cell-based; conditions: YEM 27, 24 hrs, 80% inhibition; for MIC of compound in the presence of fluconazole (+): 1/8 × MIC of fluconazole
[12] = biological target: pCDRI (ABC) efflux pump in S. cerevisiae YEM-1 (Candida albicans, UniProt P43071); test: cell-based; type: cell-based, C. albicans; conditions: YEM-1 pCDRI; fluconazole fixed at FLUhalf 5.6
[13] = tested on: pCgBEN (MF) efflux pump in S. cerevisiae YEM-40; type: cell-based, C. glabrata
[14] = tested on: YEM 24 C. albicans ΔCDR1, ΔCDR2; test: microbe, parasite or virus in culture; type: cell-based; conditions: YEM 24, 24 hrs, 80% inhibition; for MIC of compound in the presence of fluconazole (+): 1/8 × MIC of fluconazole
[15] = tested on: C. albicans YEM-15 (CDR1 & CDR2 overexpressor); type: cell-based
[16] = tested on: C. krusei YEM-52 (ATCC 90878), wild type; test: Minimal concentration to reduce fluconazole MIC sixteen-fold (Table 7); type: cell-based; conditions: YEM-52, wild type
[17] = tested on: C. krusei YEM-52 (ATCC 90878), wild type; test: Broth dilution MIC, fluconazole with/without milbemycin oxime (Table 6); type: cell-based; conditions: YEM-52; milbemycin oxime 2.5 μg/ml
[18] = tested on: C. glabrata YEM-19 (CgCDR overexpressor); type: cell-based
C. albicans YEM-13 (BEN) = type: cell-based

Compound	FEPIhalf (concentration needed to reduce activity of efflux pump by 50%) [4]	FEPIhalf (concentration needed to reduce activity of efflux pump by 50%) [5]	MIC of compound in the presence of fluconazole (+) [6]	MIC of compound in the absence of fluconazole (−) [6] [µg/mL]	MIC of compound in the presence of fluconazole (+) [7] [µg/mL]	MIC of compound in the absence of fluconazole (−) [7] [µg/mL]	MIC of compound in the presence of fluconazole (+) [8] [µg/mL]	MIC of compound in the absence of fluconazole (−) [8] [µg/mL]	FEPIhalf (concentration needed to reduce activity of efflux pump by 50%) [9]	MIC of compound in the presence of fluconazole (+) (YEM 30 C. albicans wt)	MIC of compound in the absence of fluconazole (−) (YEM 30 C. albicans wt) [µg/mL]	FEPIhalf (concentration needed to reduce activity of efflux pump by 50%) [10]	MIC of compound in the presence of fluconazole (+) (YEM 51 C. glabrata wt) [µg/mL]	MIC of compound in the absence of fluconazole (−) (YEM 51 C. glabrata wt) [µg/mL]	MIC of compound in the presence of fluconazole (+) (YEM 53 C. krusei) [µg/mL]	MIC of compound in the absence of fluconazole (−) (YEM 53 C. krusei) [µg/mL]	FEPI MIC with fluconazole, 60% Inh (Aspergillus fumigatus)	FEPI MIC with fluconazole, 80% Inh (Aspergillus fumigatus)	FEPI MIC with itraconazole, 60% Inh (Aspergillus fumigatus)	FEPI MIC with itraconazole, 80% Inh (Aspergillus fumigatus)	other results
COc1cccc2c1C(=O)c1c(O)c3c(c(O)c1C2=O)C[C@@](O)(C(=O)CO)C[C@@H]3O[C@H]1C[C@H](N)[C@H](O)[C@H](C)O1 [Adriamycin, adriamycin, reference compound]	–	–	–	–	–	–	–	–	–	–	–	–	–	–	–	–	–	–	–	–	Adriamycin TC50, P388 [1]: 0.009 µg/mL; Adriamycin TC50, P388/ADM [2]: 2.954 µg/mL; Ratio [P388/A]/[P388] [3]: 337
LL-F2849α oxime [Compound 18]	>64	>64	> 64 µg/mL	> 64	> 64	> 64	> 64	> 64	>64	≦0.03	> 64	>64	> 64	> 64	> 64	> 64	8	>64	>64	>64	FEPI MIC with ketoconazole, 60% Inh (Aspergillus fumigatus): 0.125; FEPI MIC with ketoconazole, 80% Inh (Aspergillus fumigatus): 0.125; FEPI MIC (alone) (Aspergillus fumigatus): >64; MIC of compound in the presence of fluconazole (+) [11]: > 64 µg/mL; MIC of compound in the absence of fluconazole (−) [11]: > 64 µg/mL; FEPIhalf (concentration needed to reduce activity of efflux pump by 50%) [12]: >64; FEPIhalf (concentration needed to reduce activity of efflux pump by 50%) [13]: >64; MIC of compound in the presence of fluconazole (+) [14]: > 64 µg/mL; MIC of compound in the absence of fluconazole (−) [14]: > 64 µg/mL
Milbemycin oxime [Compound 2]	>64	0.125	≦0.03	> 64	> 64	> 64	4	> 64	64	≦0.03	> 64	>64	16	> 64	2	> 64	2	>64	>64	>64	Minimal concentration required to reduce the MIC of fluconazole by sixteen-fold [15]: <0.07 µg/mL; Minimal concentration required to reduce the MIC of fluconazole by sixteen-fold [16]: 1.25 µg/mL; FEPI MIC with ketoconazole, 60% Inh (Aspergillus fumigatus): 0.5; FEPI MIC with ketoconazole, 80% Inh (Aspergillus fumigatus): 0.5; FEPI MIC (alone) (Aspergillus fumigatus): >64; MIC of compound in the presence of fluconazole (+) [11]: 64 µg/mL; MIC of compound in the absence of fluconazole (−) [11]: > 64 µg/mL; FEPIhalf (concentration needed to reduce activity of efflux pump by 50%) [12]: <0.06; MIC of fluconazole, Flu + McOxm (2.5 μg/ml) [17]: 2 µg/mL; Minimal concentration required to reduce the MIC of fluconazole by sixteen-fold [18]: >80 µg/mL; FEPIhalf (concentration needed to reduce activity of efflux pump by 50%) [13]: >64; MIC of compound in the presence of fluconazole (+) [14]: > 64 µg/mL; MIC of compound in the absence of fluconazole (−) [14]: > 64 µg/mL; Minimal concentration required to reduce the MIC of fluconazole by sixteen-fold (C. albicans YEM-13 (BEN)): 80 µg/mL
